{"source": "ChEMBL document CHEMBL4024706", "about": "(Eur J Med Chem, 2017)", "key": {"[1]": {"molecular_target": "Tyrosine-protein kinase CSK (Homo sapiens) (UniProt P41240)", "sequence (P41240 2-450 limits assumed)": "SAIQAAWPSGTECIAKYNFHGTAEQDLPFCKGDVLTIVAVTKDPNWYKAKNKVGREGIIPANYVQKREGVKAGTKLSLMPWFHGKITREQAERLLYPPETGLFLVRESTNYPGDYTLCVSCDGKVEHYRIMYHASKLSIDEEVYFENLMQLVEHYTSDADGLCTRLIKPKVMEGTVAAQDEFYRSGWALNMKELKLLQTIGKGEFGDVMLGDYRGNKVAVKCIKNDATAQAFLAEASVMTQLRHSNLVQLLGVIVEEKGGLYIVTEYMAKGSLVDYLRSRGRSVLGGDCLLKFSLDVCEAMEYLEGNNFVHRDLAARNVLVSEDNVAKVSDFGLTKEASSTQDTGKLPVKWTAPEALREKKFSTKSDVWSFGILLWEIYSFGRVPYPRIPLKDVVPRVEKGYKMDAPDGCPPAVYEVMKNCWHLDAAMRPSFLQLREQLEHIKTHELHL", "assay": "Inhibition of wild-type human full length CSK (M1 to L450 residues) expressed in bacterial expression system assessed as residual activity at 1 uM by Kinomescan method relative to control"}, "[2]": {"molecular_target": "Serine/threonine-protein kinase NIM1 (Homo sapiens) (UniProt Q8IY84)", "assay": "Inhibition of wild-type human partial length NIM1 (Q44 to N355 residues) expressed in mammalian expression system assessed as residual activity at 1 uM by Kinomescan method relative to control"}, "[3]": {"molecular_target": "NT-3 growth factor receptor (Homo sapiens) (UniProt Q16288)", "assay": "Inhibition of wild-type human partial length TRKC (Q531 to G825 residues) expressed in mammalian expression system assessed as residual activity at 1 uM by Kinomescan method relative to control"}, "[4]": {"molecular_target": "SNF-related serine/threonine-protein kinase (Homo sapiens) (UniProt Q9NRH2)", "sequence (Q9NRH2 whole entry, the tested form may be a part)": "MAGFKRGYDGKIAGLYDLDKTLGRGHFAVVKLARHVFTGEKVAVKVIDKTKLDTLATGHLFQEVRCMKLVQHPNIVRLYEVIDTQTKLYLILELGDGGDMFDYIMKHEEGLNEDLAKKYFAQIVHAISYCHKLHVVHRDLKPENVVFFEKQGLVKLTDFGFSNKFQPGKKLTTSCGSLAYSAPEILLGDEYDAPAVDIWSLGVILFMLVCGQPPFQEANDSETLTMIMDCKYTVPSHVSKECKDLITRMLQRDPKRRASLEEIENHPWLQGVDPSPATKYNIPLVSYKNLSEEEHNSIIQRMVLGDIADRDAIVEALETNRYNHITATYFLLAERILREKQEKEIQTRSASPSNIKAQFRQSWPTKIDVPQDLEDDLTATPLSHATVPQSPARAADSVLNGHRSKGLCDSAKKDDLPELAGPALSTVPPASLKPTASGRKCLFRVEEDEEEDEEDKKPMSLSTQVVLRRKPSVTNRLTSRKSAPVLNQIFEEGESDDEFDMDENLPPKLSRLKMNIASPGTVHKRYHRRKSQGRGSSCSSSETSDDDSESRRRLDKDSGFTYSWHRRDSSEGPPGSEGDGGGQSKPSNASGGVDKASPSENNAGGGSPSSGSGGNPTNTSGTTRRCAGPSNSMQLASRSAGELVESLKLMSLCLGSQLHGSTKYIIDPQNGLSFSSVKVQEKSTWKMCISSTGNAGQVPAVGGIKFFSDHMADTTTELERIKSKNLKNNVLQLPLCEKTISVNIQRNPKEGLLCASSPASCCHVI", "assay": "Inhibition of wild-type human partial length SNRK (M1 to E339 residues) expressed in mammalian expression system assessed as residual activity at 1 uM by Kinomescan method relative to control"}, "[5]": {"molecular_target": "Tyrosine-protein kinase ABL1 (Homo sapiens) (UniProt P00519)", "assay": "Inhibition of wild-type human phosphorylated ABL1 (S229 to K512 residues) expressed in mammalian expression system assessed as residual activity at 1 uM by Kinomescan method relative to control"}, "[6]": {"system": "Tyrosine-protein kinase ABL1 (Homo sapiens), P00519 [E255K]", "assay": "Inhibition of human phosphorylated ABL1 E255K mutant (S229 to K512 residues) expressed in mammalian expression system assessed as residual activity at 1 uM by Kinomescan method relative to control"}, "[7]": {"molecular_target": "RAF proto-oncogene serine/threonine-protein kinase (Homo sapiens) (UniProt P04049)", "assay": "Inhibition of wild-type human partial length RAF1 (I330 to T640 residues) expressed in bacterial expression system assessed as residual activity at 1 uM by Kinomescan method relative to control"}, "[8]": {"molecular_target": "Phosphatidylinositol 5-phosphate 4-kinase type-2 beta (Homo sapiens) (UniProt P78356)", "sequence (P78356 whole entry, the tested form may be a part)": "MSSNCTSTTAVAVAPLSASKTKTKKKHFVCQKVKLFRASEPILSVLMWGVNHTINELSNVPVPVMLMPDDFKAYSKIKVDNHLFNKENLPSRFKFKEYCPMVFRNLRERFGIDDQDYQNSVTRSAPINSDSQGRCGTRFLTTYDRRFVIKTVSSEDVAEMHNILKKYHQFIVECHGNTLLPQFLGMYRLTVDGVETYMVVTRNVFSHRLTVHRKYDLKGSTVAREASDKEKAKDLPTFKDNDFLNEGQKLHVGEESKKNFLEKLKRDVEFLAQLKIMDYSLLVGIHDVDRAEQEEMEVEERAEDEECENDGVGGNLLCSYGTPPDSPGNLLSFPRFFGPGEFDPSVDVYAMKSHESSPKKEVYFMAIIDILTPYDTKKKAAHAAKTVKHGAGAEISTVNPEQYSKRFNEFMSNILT", "assay": "Inhibition of wild-type human full length PIP5K2B (M1 to T416 residues) expressed in bacterial expression system assessed as residual activity at 1 uM by Kinomescan method relative to control"}, "[9]": {"molecular_target": "Phosphorylase b kinase gamma catalytic chain, skeletal muscle/heart isoform (Homo sapiens) (UniProt Q16816)", "assay": "Inhibition of wild-type human full length PHKG1 (M1 to Y387 residues) expressed in bacterial expression system assessed as residual activity at 1 uM by Kinomescan method relative to control"}, "[10]": {"molecular_target": "TGF-beta receptor type-2 (Homo sapiens) (UniProt P37173)", "assay": "Inhibition of wild-type human partial length TGFBR2 (I218 to K567 residues) expressed in bacterial expression system assessed as residual activity at 1 uM by Kinomescan method relative to control"}, "[11]": {"molecular_target": "5'-AMP-activated protein kinase catalytic subunit alpha-2 (Homo sapiens) (UniProt P54646)", "assay": "Inhibition of wild-type human partial length AMPK alpha2 (M1 to E306 residues) expressed in bacterial expression system assessed as residual activity at 1 uM by Kinomescan method relative to control"}, "[12]": {"molecular_target": "LIM domain kinase 2 (Homo sapiens) (UniProt P53671)", "sequence (P53671 whole entry, looked up, the tested form may be a part)": "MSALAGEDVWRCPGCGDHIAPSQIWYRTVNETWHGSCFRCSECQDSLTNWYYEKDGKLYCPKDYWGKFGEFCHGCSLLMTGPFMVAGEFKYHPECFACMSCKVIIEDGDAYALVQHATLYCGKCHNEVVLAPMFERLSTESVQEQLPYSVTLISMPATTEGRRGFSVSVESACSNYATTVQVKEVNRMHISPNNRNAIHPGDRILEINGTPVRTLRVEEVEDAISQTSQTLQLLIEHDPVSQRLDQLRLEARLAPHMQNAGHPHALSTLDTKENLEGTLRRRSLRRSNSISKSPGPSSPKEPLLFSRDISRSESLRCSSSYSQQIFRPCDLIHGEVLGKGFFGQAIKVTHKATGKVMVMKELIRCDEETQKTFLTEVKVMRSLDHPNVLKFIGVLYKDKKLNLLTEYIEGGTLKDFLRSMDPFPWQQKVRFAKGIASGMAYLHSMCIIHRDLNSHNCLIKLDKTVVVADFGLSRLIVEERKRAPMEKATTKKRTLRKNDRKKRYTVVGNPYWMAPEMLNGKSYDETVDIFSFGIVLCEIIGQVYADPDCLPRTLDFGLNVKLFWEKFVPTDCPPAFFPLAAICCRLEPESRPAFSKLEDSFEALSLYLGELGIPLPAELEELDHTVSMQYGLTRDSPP", "assay": "Inhibition of wild-type human full length LIMK2 (M1 to P638 residues) expressed in bacterial expression system assessed as residual activity at 1 uM by Kinomescan method relative to control"}, "[13]": {"molecular_target": "Mitotic checkpoint serine/threonine-protein kinase BUB1 (Homo sapiens) (UniProt O43683)", "assay": "Inhibition of wild-type human partial length BUB1 (Q724 to K1085 residues) expressed in mammalian expression system assessed as residual activity at 1 uM by Kinomescan method relative to control"}, "[14]": {"molecular_target": "Ribosomal protein S6 kinase beta-1 (Homo sapiens) (UniProt P23443)", "sequence (P23443 whole entry, looked up, the tested form may be a part)": "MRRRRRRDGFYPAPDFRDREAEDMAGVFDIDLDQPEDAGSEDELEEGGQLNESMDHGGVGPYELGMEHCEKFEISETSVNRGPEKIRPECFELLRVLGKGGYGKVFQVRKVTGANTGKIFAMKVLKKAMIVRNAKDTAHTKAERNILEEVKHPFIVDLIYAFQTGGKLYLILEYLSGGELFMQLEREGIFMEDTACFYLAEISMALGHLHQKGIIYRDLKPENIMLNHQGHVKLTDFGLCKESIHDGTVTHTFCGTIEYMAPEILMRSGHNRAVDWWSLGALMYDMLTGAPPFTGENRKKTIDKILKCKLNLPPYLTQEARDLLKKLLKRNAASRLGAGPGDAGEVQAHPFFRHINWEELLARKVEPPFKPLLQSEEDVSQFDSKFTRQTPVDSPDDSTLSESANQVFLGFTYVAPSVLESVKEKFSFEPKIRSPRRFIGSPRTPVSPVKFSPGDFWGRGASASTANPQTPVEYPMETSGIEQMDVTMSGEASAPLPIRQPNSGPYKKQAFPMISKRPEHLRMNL", "assay": "Inhibition of wild-type human partial length S6K1 (M1 to S421 residues) expressed in mammalian expression system assessed as residual activity at 1 uM by Kinomescan method relative to control"}, "[15]": {"molecular_target": "Phosphatidylinositol 4,5-bisphosphate 3-kinase catalytic subunit delta isoform (Homo sapiens) (UniProt O00329)", "assay": "Inhibition of wild-type human partial length PIK3CD (R108 to Q1044 residues) expressed in mammalian expression system assessed as residual activity at 1 uM by Kinomescan method relative to control"}, "Homo sapiens": {"organism": "Homo sapiens", "assay": "Inhibition of human partial length FLT3 ITD/F691L double mutant expressed in bacterial expression system assessed as residual activity at 1 uM by Kinomescan method relative to control"}, "[16]": {"molecular_target": "Dual specificity mitogen-activated protein kinase kinase 3 (Homo sapiens) (UniProt P46734)", "assay": "Inhibition of wild-type human full length MEK3 (M1 to S318 residues) expressed in mammalian expression system assessed as residual activity at 1 uM by Kinomescan method relative to control"}, "[17]": {"system": "Epidermal growth factor receptor (Homo sapiens), P00533 [UNDEFINED MUTATION]", "assay": "Inhibition of human partial length EGFR S752-I759del mutant expressed in bacterial expression system assessed as residual activity at 1 uM by Kinomescan method relative to control"}, "[18]": {"molecular_target": "Phosphorylase b kinase gamma catalytic chain, liver/testis isoform (Homo sapiens) (UniProt P15735)", "assay": "Inhibition of wild-type human partial length PHKG2 (M1 to W300 residues) expressed in bacterial expression system assessed as residual activity at 1 uM by Kinomescan method relative to control"}, "[19]": {"system": "Tyrosine-protein kinase ABL1 (Homo sapiens), P00519 [T315I]", "assay": "Inhibition of human phosphorylated ABL1 T315I mutant (S229 to K512 residues) expressed in mammalian expression system assessed as residual activity at 1 uM by Kinomescan method relative to control"}, "[20]": {"molecular_target": "Tyrosine-protein kinase JAK2 (Homo sapiens) (UniProt O60674)", "sequence (O60674 whole entry, the tested form may be a part)": "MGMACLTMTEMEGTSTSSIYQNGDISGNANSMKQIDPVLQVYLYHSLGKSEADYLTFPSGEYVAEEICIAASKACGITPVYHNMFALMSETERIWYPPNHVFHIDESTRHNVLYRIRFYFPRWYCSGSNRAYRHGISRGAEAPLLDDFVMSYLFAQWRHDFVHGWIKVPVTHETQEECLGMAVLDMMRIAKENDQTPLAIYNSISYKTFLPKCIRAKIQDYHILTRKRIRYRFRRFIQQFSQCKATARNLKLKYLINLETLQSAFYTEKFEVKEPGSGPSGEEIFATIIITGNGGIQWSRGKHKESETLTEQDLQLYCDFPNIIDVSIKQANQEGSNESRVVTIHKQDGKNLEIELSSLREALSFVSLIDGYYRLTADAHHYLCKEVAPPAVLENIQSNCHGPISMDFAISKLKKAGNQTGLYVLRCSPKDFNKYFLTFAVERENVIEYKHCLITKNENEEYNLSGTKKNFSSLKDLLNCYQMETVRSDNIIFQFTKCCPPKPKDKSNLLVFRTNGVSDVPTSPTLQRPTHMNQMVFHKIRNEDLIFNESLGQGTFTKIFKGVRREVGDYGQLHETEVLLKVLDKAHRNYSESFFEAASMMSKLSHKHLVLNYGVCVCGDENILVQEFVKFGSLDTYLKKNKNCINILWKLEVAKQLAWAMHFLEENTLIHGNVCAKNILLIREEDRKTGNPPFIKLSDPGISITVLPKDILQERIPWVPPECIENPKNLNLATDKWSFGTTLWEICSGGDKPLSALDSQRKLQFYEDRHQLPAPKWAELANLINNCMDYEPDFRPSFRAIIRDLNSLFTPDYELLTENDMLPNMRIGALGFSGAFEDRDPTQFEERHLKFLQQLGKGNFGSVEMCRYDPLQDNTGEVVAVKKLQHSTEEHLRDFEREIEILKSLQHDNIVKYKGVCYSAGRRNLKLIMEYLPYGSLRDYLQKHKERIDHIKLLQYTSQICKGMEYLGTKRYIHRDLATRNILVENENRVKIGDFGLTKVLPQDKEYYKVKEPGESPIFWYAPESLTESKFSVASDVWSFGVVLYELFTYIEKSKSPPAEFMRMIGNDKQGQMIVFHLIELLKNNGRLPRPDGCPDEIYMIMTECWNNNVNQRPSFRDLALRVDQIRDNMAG", "assay": "Inhibition of wild-type human partial length JAK2 JH1 catalytic domain (A829 to G1132 residues) expressed in mammalian expression system assessed as residual activity at 1 uM by Kinomescan method relative to control"}, "[21]": {"molecular_target": "Focal adhesion kinase 1 (Homo sapiens) (UniProt Q05397)", "sequence (Q05397 2-1052 limits assumed)": "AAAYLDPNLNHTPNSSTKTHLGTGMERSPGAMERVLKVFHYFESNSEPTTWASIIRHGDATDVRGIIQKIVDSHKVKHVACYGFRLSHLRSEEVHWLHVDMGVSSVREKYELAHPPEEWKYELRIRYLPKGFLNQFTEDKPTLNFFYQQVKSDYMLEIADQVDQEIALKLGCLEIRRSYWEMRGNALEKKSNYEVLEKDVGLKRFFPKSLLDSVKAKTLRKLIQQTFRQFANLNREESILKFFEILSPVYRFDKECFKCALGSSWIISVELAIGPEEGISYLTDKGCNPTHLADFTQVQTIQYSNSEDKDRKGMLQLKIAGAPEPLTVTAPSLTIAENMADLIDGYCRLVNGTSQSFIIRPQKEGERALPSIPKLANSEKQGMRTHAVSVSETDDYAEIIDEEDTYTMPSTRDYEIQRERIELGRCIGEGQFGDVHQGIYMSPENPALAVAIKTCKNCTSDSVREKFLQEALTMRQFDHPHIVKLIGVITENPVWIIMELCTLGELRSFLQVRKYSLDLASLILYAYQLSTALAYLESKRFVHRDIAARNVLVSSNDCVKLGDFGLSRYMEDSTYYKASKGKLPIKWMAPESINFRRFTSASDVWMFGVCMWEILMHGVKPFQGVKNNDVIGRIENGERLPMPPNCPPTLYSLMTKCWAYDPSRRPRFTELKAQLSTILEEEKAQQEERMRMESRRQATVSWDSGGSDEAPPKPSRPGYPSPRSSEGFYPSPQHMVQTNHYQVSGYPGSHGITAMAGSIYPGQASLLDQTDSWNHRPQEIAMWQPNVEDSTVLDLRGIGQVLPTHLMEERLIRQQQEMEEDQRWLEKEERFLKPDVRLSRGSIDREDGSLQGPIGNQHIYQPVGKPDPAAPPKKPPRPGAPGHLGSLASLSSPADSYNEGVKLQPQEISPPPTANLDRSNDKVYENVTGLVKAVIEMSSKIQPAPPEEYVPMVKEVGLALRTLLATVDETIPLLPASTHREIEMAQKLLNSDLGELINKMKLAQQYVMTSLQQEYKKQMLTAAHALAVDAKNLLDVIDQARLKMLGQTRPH", "assay": "Inhibition of wild-type human partial length FAK (D402 to R696 residues) expressed in bacterial expression system assessed as residual activity at 1 uM by Kinomescan method relative to control"}, "[22]": {"molecular_target": "Casein kinase II subunit alpha (Homo sapiens) (UniProt P68400)", "assay": "Inhibition of wild-type human full length CSNK2A1 (M1 to Q391 residues) expressed in mammalian expression system assessed as residual activity at 1 uM by Kinomescan method relative to control"}, "[23]": {"molecular_target": "Phosphatidylinositol 4-phosphate 3-kinase C2 domain-containing subunit beta (Homo sapiens) (UniProt O00750)", "assay": "Inhibition of wild-type human partial length PIK3C2B (M1 to L1634 residues) expressed in mammalian expression system assessed as residual activity at 1 uM by Kinomescan method relative to control"}, "[24]": {"molecular_target": "Dual specificity mitogen-activated protein kinase kinase 7 (Homo sapiens) (UniProt O14733)", "assay": "Inhibition of wild-type human full length MKK7 (M1 to R419 residues) expressed in mammalian expression system assessed as residual activity at 1 uM by Kinomescan method relative to control"}}}
{"compound": "C=CC(=O)Nc1cc(Nc2cc(-c3cccc(NC(=O)c4ccc(C(C)(C)C)cc4)c3C)cn(C)c2=O)ccc1C(=O)N1CCOCC1", "values": [{"measurement": "Activity", "setting": "[1]", "result": 100, "unit": "%"}, {"measurement": "Activity", "setting": "[2]", "result": 100, "unit": "%"}, {"measurement": "Activity", "setting": "[3]", "result": 76, "unit": "%"}, {"measurement": "Activity", "setting": "[4]", "result": 80, "unit": "%"}, {"measurement": "Activity", "setting": "[5]", "result": 100, "unit": "%"}, {"measurement": "Activity", "setting": "[6]", "result": 100, "unit": "%"}, {"measurement": "Activity", "setting": "[7]", "result": 99, "unit": "%"}, {"measurement": "Activity", "setting": "[8]", "result": 82, "unit": "%"}, {"measurement": "Activity", "setting": "[9]", "result": 100, "unit": "%"}, {"measurement": "Activity", "setting": "[10]", "result": 90, "unit": "%"}, {"measurement": "Activity", "setting": "[11]", "result": 92, "unit": "%"}, {"measurement": "Activity", "setting": "[12]", "result": 100, "unit": "%"}, {"measurement": "Activity", "setting": "[13]", "result": 100, "unit": "%"}, {"measurement": "Activity", "setting": "[14]", "result": 100, "unit": "%"}, {"measurement": "Activity", "setting": "[15]", "result": 100, "unit": "%"}, {"measurement": "Activity", "setting": "Homo sapiens", "result": 87, "unit": "%"}, {"measurement": "Activity", "setting": "[16]", "result": 100, "unit": "%"}, {"measurement": "Activity", "setting": "[17]", "result": 97, "unit": "%"}, {"measurement": "Activity", "setting": "[18]", "result": 100, "unit": "%"}, {"measurement": "Activity", "setting": "[19]", "result": 93, "unit": "%"}, {"measurement": "Activity", "setting": "[20]", "result": 73, "unit": "%"}, {"measurement": "Activity", "setting": "[21]", "result": 96, "unit": "%"}, {"measurement": "Activity", "setting": "[22]", "result": 100, "unit": "%"}, {"measurement": "Activity", "setting": "[23]", "result": 92, "unit": "%"}, {"measurement": "Activity", "setting": "[24]", "result": 100, "unit": "%"}]}
